Experiments:
Type in all cases: in vivo, mice
NCI-H82 xenograft model = assay: Combination of cisplatin and MLN4924 in NCI-H82 xenograft model
Description: NCI-H69 or NCI-H82 small cell lung tumor fragments (30- to 40-mg) are implanted into the subcutaneous space in the area of the right flank of NCr nu/nu mice (7-10 weeks, Charles River Laboratories, Inc, Frederick Md. or Wilmington, Mass.) using a 12-gauge trocar.
(§1) Tumors are measured twice weekly using a vernier caliper. Tumor volumes are calculated using standard procedures (0.5×(length×width^2)). […] Tumor size and body weight are measured approximately twice a week for the duration of the study. Mice are euthanized when their tumor volume reached 10% of their body weight, or when the average tumor volume of a treatment or control group reached approximately 2000 mm^3. Tumor growth continued to be monitored after the dosing period in some studies. Average tumor volume is reported as a function of time for selected groups of selected studies in Figures A, B, and C.
(§2) Measurements from day 0 to 18, 21 or 22 are analyzed as specified in Tables 4-9. All tumor volumes have a value of 1 added to them before log10 transformation. For each animal, the log tumor volume at day 0 is subtracted from the log tumor volume on the subsequent days. This difference vs. time is used to calculate an area under the curve (AUC) for each animal using the trapezoid rule. […] The synergy score for the combination of agents A and B is defined as 100*(mean(AUCAB)−mean(AUCA)−mean(AUCB)+mean(AUCctl))/mean(AUCctl): where AUCAB, AUCA, AUCB, and AUCctl are the AUC values for animals in the combination group, the A group, the B group, and the control group, respectively. The standard error of the synergy score is computed based on the variation in the AUC values among the animals. […] If the P-value is above 0.05, then the combination is considered to be additive. If the P-value is below 0.05, and the synergy score is less than zero, then the combination is considered to be synergistic. […] Otherwise, the combination is classified as antagonistic.

[1] = tested on: PHTX249Pa xenograft model; assay: Combination of gemcitabine and MLN4924 in PHTX249Pa xenograft model
Description: (§3) The PHTX249 Pa pancreatic xenograft model was established from a patient-derived tumor collected during surgery from a person with pancreatic adenocarcinoma. […] Gemcitabine (Gemzar, Henry Schein, Inc, Pittsburgh Pa., and Myoderm Medical, Norristown, Pa.) is formulated in 0.9% saline and administered by intraperitoneal injection (IP) q3Dx4 (every 3 days for a total of 4 doses) at 2.5 mg/kg or 10 mg/kg, or by IV injection twice weekly (BIW) at 20 mg/kg IVU. […] Tumors are measured twice weekly using a vernier caliper. […] Tumor size and body weight are measured approximately twice a week for the duration of the study. […] Tumor growth continued to be monitored after the dosing period in some studies. […] Average tumor volume is reported as a function of time for selected groups of selected studies in Figures A, B, and C. Measurements from day 0 to 18, 21 or 22 are analyzed as specified in Tables 4-9. […] For each animal, the log tumor volume at day 0 is subtracted from the log tumor volume on the subsequent days. This difference vs. time is used to calculate an area under the curve (AUC) for each animal using the trapezoid rule. In instances when an animal in a treatment group is removed early from the study, the last observed tumor value is carried forward through all subsequent time points. […] The standard error of the synergy score is computed based on the variation in the AUC values among the animals. […] Otherwise, the combination is classified as antagonistic.

LU1143 xenograft model = assay: Combination of docetaxel or carboplatin and MLN4924 in LU1143 xenograft model; conditions: 45 mg/kg MLN4924 BID SC
Description: (§4) Docetaxel (Henry Schein, Inc., Pittsburgh Pa., Qilu Pharmaceutical Co., Ltd., Jinan, Shandong, China, and Sanofi-Aventis) is formulated in 0.9% saline and administered by intravenous injection (IV) once weekly (QW) at 5 mg/kg or 10 mg/kg.
(§5) Carboplatin (CARBOplatin Injection, Hospira, Inc., Qilu Pharmaceutical Co., Ltd. Jinan, Shandong, China, and Teva Gry-Pharma GmbH, Ulm, Germany) is formulated in 0.9% saline and administered by IP injection once weekly (QW) at 50 mg/kg. The once weekly schedule is also described as every 7 days (Q7D).
as §1
Measurements from day 0 to 18, 21 or 22 are analyzed as specified in Tables 4-9. All tumor volumes have a value of 1 added to them before log10 transformation. For each animal, the log tumor volume at day 0 is subtracted from the log tumor volume on the subsequent days. This difference vs. time is used to calculate an area under the curve (AUC) for each animal using the trapezoid rule. […] The synergy score for the combination of agents A and B is defined as 100*(mean(AUCAB)−mean(AUCA)−mean(AUCB)+mean(AUCctl))/mean(AUCctl): where AUCAB, AUCA, AUCB, and AUCctl are the AUC values for animals in the combination group, the A group, the B group, and the control group, respectively. The standard error of the synergy score is computed based on the variation in the AUC values among the animals. […] If the P-value is above 0.05, then the combination is considered to be additive. […]

PHTX02B xenograft model = assay: Combination of gemcitabine and MLN4924 in PHTX02B xenograft model
Description: as §3, with “PHTX02B breast” for “PHTX249 Pa pancreatic”, “invasive ductal carcinoma classified as triple negative breast cancer (ER-/PR-/Her2-) by IHC.” for “pancreatic adenocarcinoma.”

LXFE409 xenograft model = assay: Combination of docetaxel or carboplatin and MLN4924 in LXFE409 xenograft model; conditions: for average tumor volume day 21: LXFE409 xenograft
Description: LXFE409 squamous non small cell lung cancer tumor fragments are implanted into the subcutaneous space in the flank of female NMRI nu/nu mice (5-7 weeks, Janvier Labs, Saint Berthevin, France).
as §4, §5, §1, §2

Structure (SMILES): NS(=O)(=O)OC[C@@H]1C[C@@H](n2ccc3c(N[C@H]4CCc5ccccc54)ncnc32)C[C@@H]1O [MLN4924, ((1S,2S,4R)-4-(4-((1S)-2,3-dihydro-1H-inden-1-ylamino)-7H-pyrrolo[2,3-d]-pyrimidin-7-yl)-2-hydroxycyclopentyl)methyl sulfamate]
- average tumor volume day 22 (NCI-H82 xenograft model; 60 mg/kg MLN4924 BID Q2Dx3/week SC): 861.9 mm^3
- average tumor volume day 22 (NCI-H82 xenograft model; 60 mg/kg MLN4924 BID Q3Dx2/week SC): 783.3 mm^3
- average tumor volume day 18 ([1]; PHTX249Pa xenograft, 90 mg/kg MLN4924 BID BIW SC): 1748.9 mm^3
- tumor growth compared to the control vehicle group (in words) ([1]; PHTX249 Pa xenograft, gemcitabine 20 mg/kg IV BIW, MLN4924 90 mg/kg SC BID BIW, single agents or their combination): did not show growth inhibition compared to the control vehicle group
- average tumor volume day 21 (LU1143 xenograft model): 801.2 mm^3
- average tumor volume day 22 (PHTX02B xenograft model; 30 mg/kg MLN4924 BID SC): 647.4 mm^3
- tumor growth during the treatment period (in words) (PHTX02B xenograft model; FIG. 2, MLN4924 SC 30 mg/kg BID, gemcitabine 10 mg/kg IP q3dx4, single agents or their combination): inhibited tumor growth compared to the control vehicle group
- tumor course after the treatment period, to end of study on day 95 (in words) (LXFE409 xenograft model; LXFE409 sqNSCLC model, FIG. 4, MLN4924 120 mg/kg SC Q2Dx3/week for 3 weeks, docetaxel 10 mg/kg IV QW for 3 weeks, single agents or combination): regrew after the treatment period ended
- average tumor volume day 21 (LXFE409 xenograft model; 90 mg/kg MLN4924 Q2Dx3/week SC): 707.5 mm^3
- average tumor volume day 21 (LXFE409 xenograft model; 120 mg/kg MLN4924 Q2Dx3/week SC): 167.1 mm^3
